{"source": "ChEMBL document CHEMBL5550215", "about": "“Discovery of Novel Imidazo[1,2-a]pyridine-Based HDAC6 Inhibitors as an Anticarcinogen with a Cardioprotective Effect” (J Med Chem, 2024)", "key": {"[1]": {"test_system": "MGC-803", "assay": "Antiproliferative activity against human MGC-803 cells assessed as inhibition of cell growth by MTT assay"}, "[2]": {"test_system": "Mus musculus", "assay": "Cardioprotective activity against myocardial ischemia/reperfusion induced C57BL/6J mouse model assessed as reduction in ST-segment elevation at 2.5 to 10 mg/kg", "assay_type": "functional, organism-based", "details": "dose 2.5-10 mg/kg"}, "[3]": {"test_system": "MGC-803", "assay": "Induction of apoptosis in human MGC-803 cells assessed as decrease in Bcl-2 expression by Western blot analysis", "assay_type": "functional, cell-based", "details": "dose <= 2.0 µM"}, "[4]": {"assay": "Observed apparent volume of distribution in male Sprague-Dawley rat at 7 mg/kg,po measured upto 8 hrs by UPLC-MS/MS analysis", "assay_type": "ADME, organism-based", "details": "in vivo"}, "[5]": {"test_system": "Mus musculus", "assay": "Cardioprotective activity against myocardial ischemia/reperfusion induced C57BL/6J mouse model assessed as alleviation of leukocyte infiltration at 10 mg/kg by H and E staining based analysis", "assay_type": "functional, organism-based"}, "[6]": {"test_system": "H9c2", "assay": "Cardioprotective activity in H2O2 induced myocardial injury in rat H9c2 cells assessed as cell viability by MTT assay", "assay_type": "functional, cell-based", "details": "dose <= 8.0 µM"}, "[7]": {"assay": "AUClast in male Sprague-Dawley rat at 7 mg/kg,po measured upto 8 hrs by UPLC-MS/MS analysis", "assay_type": "ADME, organism-based", "details": "in vivo"}, "[8]": {"test_system": "H9c2", "assay": "Cardioprotective activity in H2O2 induced myocardial injury in rat H9c2 cells assessed as effect on SOD level at upto 8 uM by q-PCR analysis", "assay_type": "functional, cell-based"}, "[9]": {"test_system": "MGC-803", "assay": "Induction of apoptosis in human MGC-803 cells assessed as viable cells at 0.5 uM measured after 48 hrs by Annexin V-EGFP and PI staining based flow cytometry analysis (reference value: 92.3%)", "assay_type": "functional", "details": "read-out: Activity"}, "[10]": {"assay": "Toxicity in C57BL/6 mouse assessed as appearance of inflammatory cell infiltration at 25 to 50 mg/kg, ip by H and E staining based analysis", "assay_type": "organism-based", "details": "in vivo, dose 25-50 mg/kg"}, "[11]": {"test_system": "MGC-803", "assay": "Induction of apoptosis in human MGC-803 cells assessed as viable cells at 2 uM measured after 48 hrs by Annexin V-EGFP and PI staining based flow cytometry analysis (reference value: 92.3%)", "assay_type": "functional", "details": "read-out: Activity"}, "[12]": {"test_system": "H9c2", "assay": "Cardioprotective activity in H2O2 induced myocardial injury in rat H9c2 cells assessed as downregulation of IL-18 expression", "assay_type": "functional, cell-based", "details": "dose <= 8.0 µM"}, "[13]": {"molecular_target": "T1, Protein deacetylase HDAC6 (Mus musculus) (UniProt Q9Z2V5)", "T1 sequence (whole entry)": "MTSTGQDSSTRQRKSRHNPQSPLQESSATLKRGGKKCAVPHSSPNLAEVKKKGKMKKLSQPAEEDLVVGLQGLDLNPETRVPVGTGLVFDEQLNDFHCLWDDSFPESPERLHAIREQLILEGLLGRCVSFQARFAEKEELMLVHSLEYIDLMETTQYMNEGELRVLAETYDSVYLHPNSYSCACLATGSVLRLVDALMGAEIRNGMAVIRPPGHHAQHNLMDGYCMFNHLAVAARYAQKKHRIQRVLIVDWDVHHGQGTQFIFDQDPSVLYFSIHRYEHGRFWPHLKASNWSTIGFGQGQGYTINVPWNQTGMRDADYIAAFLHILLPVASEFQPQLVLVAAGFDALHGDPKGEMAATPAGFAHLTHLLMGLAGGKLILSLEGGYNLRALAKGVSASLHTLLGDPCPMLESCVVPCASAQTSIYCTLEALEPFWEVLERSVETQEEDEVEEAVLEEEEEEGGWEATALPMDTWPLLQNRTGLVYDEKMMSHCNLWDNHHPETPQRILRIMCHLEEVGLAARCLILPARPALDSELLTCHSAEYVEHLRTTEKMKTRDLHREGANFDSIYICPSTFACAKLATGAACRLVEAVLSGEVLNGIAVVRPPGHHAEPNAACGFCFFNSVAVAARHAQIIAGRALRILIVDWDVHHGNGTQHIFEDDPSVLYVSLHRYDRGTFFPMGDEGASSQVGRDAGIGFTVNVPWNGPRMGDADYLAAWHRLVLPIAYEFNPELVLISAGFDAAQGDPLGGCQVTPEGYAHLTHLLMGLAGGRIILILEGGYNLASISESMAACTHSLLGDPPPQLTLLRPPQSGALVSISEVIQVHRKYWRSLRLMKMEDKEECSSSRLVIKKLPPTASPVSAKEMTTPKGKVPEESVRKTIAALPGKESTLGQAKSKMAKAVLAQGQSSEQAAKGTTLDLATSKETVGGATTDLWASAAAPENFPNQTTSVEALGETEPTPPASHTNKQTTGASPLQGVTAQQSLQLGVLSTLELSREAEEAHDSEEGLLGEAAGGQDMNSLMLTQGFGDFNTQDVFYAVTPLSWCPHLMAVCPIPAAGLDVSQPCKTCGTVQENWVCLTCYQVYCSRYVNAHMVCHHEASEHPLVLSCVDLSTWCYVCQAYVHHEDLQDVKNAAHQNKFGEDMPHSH", "assay": "In vivo inhibition of HDAC6 in C57BL/6 mouse xenografted with MGC-803 cells assessed as effect on acetylated H3 level at 25 to 50 mg/kg, ip by Western blot analysis", "assay_type": "functional, organism-based", "details": "dose 25-50 mg/kg"}, "[14]": {"assay": "Observed clearance in male Sprague-Dawley rat at 7 mg/kg,iv measured upto 8 hrs by UPLC-MS/MS analysis", "assay_type": "ADME, organism-based", "details": "in vivo"}, "[15]": {"assay": "Tmax in male Sprague-Dawley rat at 7 mg/kg,iv measured upto 8 hrs by UPLC-MS/MS analysis", "assay_type": "ADME, organism-based", "details": "in vivo"}, "[16]": {"test_system": "MGC-803", "assay": "Induction of apoptosis in human MGC-803 cells assessed as necrotic cells at 1 uM measured after 48 hrs by Annexin V-EGFP and PI staining based flow cytometry analysis (reference value: 3.90%)", "assay_type": "functional"}, "[17]": {"test_system": "H9c2", "assay": "Cardioprotective activity in H2O2 induced myocardial injury in rat H9c2 cells assessed as appearance of defined nuclear boundaries at 2 to 8 uM", "assay_type": "functional, cell-based", "details": "dose 2-8 µM"}, "[18]": {"test_system": "Mus musculus", "assay": "Cardioprotective activity against myocardial ischemia/reperfusion induced C57BL/6J mouse model assessed as reduction in myocardial infarction area at 10 mg/kg (reference value: 72.19%)", "assay_type": "functional", "design": "scale not given: the % may be the effect or the level left"}, "[19]": {"assay": "Observed apparent volume of distribution in male Sprague-Dawley rat at 7 mg/kg,iv measured upto 8 hrs by UPLC-MS/MS analysis", "assay_type": "ADME, organism-based", "details": "in vivo, read-out: Vz"}, "[20]": {"assay": "AUC (0 to infinity) in male Sprague-Dawley rat at 7 mg/kg,po measured upto 8 hrs by UPLC-MS/MS analysis", "assay_type": "ADME, organism-based", "details": "in vivo"}, "[21]": {"test_system": "H9c2", "assay": "Cardioprotective activity in H2O2 induced myocardial injury in rat H9c2 cells assessed as downregulation of IL-1 beta expression", "assay_type": "functional, cell-based", "details": "dose <= 8.0 µM"}, "[22]": {"test_system": "Mus musculus", "assay": "Cardioprotective activity against myocardial ischemia/reperfusion induced C57BL/6J mouse model assessed as reduction in IL-1 beta expression at 2.5 to 10 mg/kg", "assay_type": "functional, organism-based", "details": "dose 2.5-10 mg/kg"}, "[23]": {"test_system": "AGS", "assay": "Antiproliferative activity against human AGS cells assessed as inhibition of cell growth by MTT assay"}, "[24]": {"test_system": "H9c2", "assay": "Protection against H2O2 induced myocardial cell injury in rat H9c2 cells at 10 uM pretreated for 24 hrs followed by H2O2 exposure and measured after 1.5 hrs (reference value: 17.91 to 57.32%)", "assay_type": "functional", "details": "time 25.5 hrs"}, "[25]": {"test_system": "NCI-H460", "assay": "Antiproliferative activity against human NCI-H460 cells assessed as inhibition of cell growth by MTT assay"}}, "note": "Active and inactive are the calls of the source. The rule behind the calls is not given here."}
{"compound": "O=C(NO)c1ccc(CNC(=O)c2cc(-c3ccc(F)cc3)cn3ccnc23)cc1", "values": [{"measurement": "IC50", "setting": "[1]", "result": 0.95, "unit": "µM"}, {"measurement": "Activity", "setting": "[2]", "result": "Active"}, {"measurement": "Activity", "setting": "[3]", "result": "Dose-Dependent Effect"}, {"measurement": "Vz", "setting": "[4]", "result": 492.21671, "unit": "L/kg"}, {"measurement": "Activity", "setting": "[5]", "result": "Active"}, {"measurement": "Activity", "setting": "[6]", "result": "Active"}, {"measurement": "AUC(0-t) at 8 h", "setting": "[7]", "result": 54.2, "unit": "ng·h/mL"}, {"measurement": "Activity", "setting": "[8]", "result": "inactive"}, {"measurement": "viability at 0.5 µM", "setting": "[9]", "result": 70.5, "unit": "%"}, {"measurement": "Activity", "setting": "[10]", "result": "Non-Toxic"}, {"measurement": "viability at 2 µM", "setting": "[11]", "result": 70.1, "unit": "%"}, {"measurement": "Activity", "setting": "[12]", "result": "Dose-Dependent Effect"}, {"measurement": "inhibition", "setting": "[13]", "result": "Active"}, {"measurement": "clearance", "setting": "[14]", "result": 134, "unit": "mL/min/kg"}, {"measurement": "Tmax", "setting": "[15]", "result": 5, "unit": "min"}, {"measurement": "Activity", "setting": "[16]", "result": 4.7, "unit": "%"}, {"measurement": "Activity", "setting": "[17]", "result": "Active"}, {"measurement": "Activity", "setting": "[18]", "result": 37.64, "unit": "%"}, {"measurement": "Vd", "setting": "[19]", "result": 25.5, "unit": "L/kg"}, {"measurement": "AUC(0-inf)", "setting": "[20]", "result": 105, "unit": "ng·h/mL"}, {"measurement": "Activity", "setting": "[21]", "result": "Dose-Dependent Effect"}, {"measurement": "Activity", "setting": "[22]", "result": "Active"}, {"measurement": "IC50", "setting": "[23]", "result": "> 10", "unit": "µM"}, {"measurement": "Activity", "setting": "[24]", "result": 66.13, "unit": "%"}, {"measurement": "IC50", "setting": "[25]", "result": "> 10", "unit": "µM"}]}
